In patent US12440457B2, “Methods of treating suicidality” (Seelos Therapeutics, Inc., priority 2020, dated 2025):

Tests used:
[1] = test system: adults with major depressive disorder at imminent risk of suicide; assay: Phase 2 study, S-STS CMCM total score; assay type: in vivo, human
Description: The S-STS CMCM (version 01/01/19) is a clinician-rated outcome measure which assesses SIB on a standard 22-item scale, as well as multiple patient and clinician-rated items. The first 16 items are rated on a Likert-type scale ranging from “not at all” (0) to “extremely” (4), where select scoring (i.e., 4 specific items are scored based on the highest score on 2 of those items) yields a total score ranging from 0 to 52. The final 6 items are used only when the patient misses a visit and is unable to complete the scale; if that missed visit is due to attempted or completed suicide, the possible maximum score is 100. The CMCM also yields 5 different single-item global assessments: 1) subject-rated likelihood of a suicide attempt; 2) subject-rated treatment needed; 3) clinician global severity of suicidal impulses, thoughts, and behaviors; 4) clinician judgment of suicide risk at this time and level of management needed for suicidality; and 5) clinician judgment of subject's likelihood of making a suicide attempt or of dying by suicide in the next 7 days. […]

[2] = test system: adults with major depressive disorder at imminent risk of suicide; assay: Phase 2 study, overall preliminary outcome; assay type: in vivo, human; conditions: two subjects, first eight days
Description: (§1) This study is currently underway.

[3] = Pham et al. 2018; cited from earlier work
[4] = test system: adults with major depressive disorder at imminent risk of suicide; assay: Phase 2 study, S-STS CMCM risk of suicide at this time; assay type: in vivo, human
Description: FIGS. 20A-20B are a table (FIG. 20A) and a graph (FIG. 20B) describing the STS CMCM (“risk of suicide at this time”) scores for Subject 1 and Subject 2 from Day 1 to Day 9 described in Example 3 of the study.
(§2) The S-STS CMCM (version 01/01/19) is a clinician-rated outcome measure which assesses SIB on a standard 22-item scale, as well as multiple patient and clinician-rated items. The first 16 items are rated on a Likert-type scale ranging from “not at all” (0) to “extremely” (4), where select scoring (i.e., 4 specific items are scored based on the highest score on 2 of those items) yields a total score ranging from 0 to 52. The final 6 items are used only when the patient misses a visit and is unable to complete the scale; if that missed visit is due to attempted or completed suicide, the possible maximum score is 100. The CMCM also yields 5 different single-item global assessments: 1) subject-rated likelihood of a suicide attempt; 2) subject-rated treatment needed; 3) clinician global severity of suicidal impulses, thoughts, and behaviors; 4) clinician judgment of suicide risk at this time and level of management needed for suicidality; and 5) clinician judgment of subject's likelihood of making a suicide attempt or of dying by suicide in the next 7 days.
(§3) The secondary endpoints will be the change from baseline at 24 hours, as well as at Day 16, in the following: • (1) S-STS total score • (2) MADRS total score at Day 16 (only) • (3) Clinical Global Impression (CGI) of Severity for SI/B (CGIS-SI/B) and Change in SI/B (CGIC-SI/B) • (4) Patient Global Impression (PGI) of Severity for SI/B (PGIS-SI/B) and Change in SI/B (PGIC-SI/B • (5) S-STS Clinician-Rated Global Severity of Suicidal Impulses, Thoughts, and Behaviors • (6) S-STS Clinician judgment of subject's risk of a suicide attempt or death by suicide at this time • (7) S-STS Clinician judgment of subject's likelihood (risk) of making a suicide attempt or of dying by suicide in the next 7 days • (8) S-STS Subject-rated global severity of suicidal impulses, thoughts, and behavior • (9) S-STS Subject-rated treatment needed score • (10) MADRS item 10 response rate (response ≤3) • (11) MADRS response (total score ≥50% reduction from baseline) • (12) MADRS remission (total score ≤12) Exploratory Endpoint:
as §1

[5] = test system: adults with major depressive disorder at imminent risk of suicide; assay: Phase 2 study, S-STS CMCM Risk of Suicide at Within the Next 7 Days; assay type: in vivo, human
Description: FIGS. 21A-21B are a table (FIG. 21A) and a graph (FIG. 21B) describing the STS CMCM (“risk of suicide at within the next 7 day”) scores for Subject 1 and Subject 2 from Day 1 to Day 9 described in Example 3 of the study.
as §2, §3, §1

[6] = test system: adults with major depressive disorder at imminent risk of suicide; assay: Phase 2 study, MADRS total score; assay type: in vivo, human
Description: The Montgomery-Asberg Depression Rating Scale (MADRS) is a diagnostic questionnaire that can be used to measure the severity of a depressive episode in a subject. In some embodiments, the MADRS can be used to measure suicidal ideation. For example, the MADRS includes 10 items directed to the following: 1) apparent sadness (e.g., representing despondency, gloom and despair that is more than just ordinary transient low spirits that is reflected in speech, facial expression, and posture); 2) reported sadness (e.g., representing reports of depressed mood, regardless of whether it is reflected in appearance or not and can include low spirits, despondency or the feeling of being beyond help and without hope); 3) inner tension (e.g., representing feelings of ill-defined discomfort, edginess, inner turmoil, mental tension mounting to either panic, dread or anguish); 4) reduced sleep (e.g., representing the experience of reduced duration or depth of sleep compared to the subject's own normal pattern when well); 5) reduced appetite (e.g., representing the feeling of a loss of appetite compared with when-well); 6) concentration difficulties (e.g., representing difficulties in collecting one's thoughts mounting to an incapacitating lack of concentration); 7) lassitude (e.g., representing difficulty in getting started or slowness in initiating and performing everyday activities); 8) inability to feel (e.g., representing the subjective experience of reduced interest in the surroundings, or activities that normally give pleasure, and the ability to react with adequate emotion to circumstances or people is reduced); 9) pessimistic thoughts (e.g., representing thoughts of guilt, inferiority, self-reproach, sinfulness, remorse and ruin); and 10) suicidal thoughts (e.g., representing the feeling that life is not worth living, that a natural death would be welcome, suicidal thoughts, and preparations for suicide). Each item is rated from 0 to 6, with 0 reflecting that the subject is not at all as described by the item and 6 reflecting that the subject is extremely like what is described by the item. […] As another example, for suicidal thoughts, a score of 0 can indicate that the subject enjoys life or takes it as it comes; a score of 2 can indicate that the subject is weary of life and may have fleeting suicidal thoughts; a score of 4 can indicate that the subject feels he or she would probably be better off dead (e.g., suicidal thoughts are common, and suicide is considered as a possible solution, but without specific plans or intention); and a score of 6 can indicate that the subject has explicit plans for suicide when there is an opportunity (e.g., the subject has made active preparations for suicide). […]

[7] = test system: adults with major depressive disorder at imminent risk of suicide; assay: Phase 2 study, CADSS dissociation
[8] = test system: adults with major depressive disorder at imminent risk of suicide; assay: Phase 2 study, MADRS item 10 (suicidality); assay type: in vivo, human; conditions: baseline 5
Description: The Montgomery-Asberg Depression Rating Scale (MADRS) is a diagnostic questionnaire that can be used to measure the severity of a depressive episode in a subject. In some embodiments, the MADRS can be used to measure suicidal ideation. […]

[9] = Leung and Baillie 1986; cited from earlier work
[10] = Subject 2, 24 hours post-administration, baseline 7

With `CNC1(c2ccccc2Cl)CCCCC1=O` (racemic) [intranasal racemic ketamine, racemic ketamine] the “S-STS CMCM score (range 0-52)” value ([1]; Subject 1, 24 hours post-administration, baseline 18) was “zero”, the “S-STS CMCM score (range 0-52)” value ([1]; Subject 2, 24 hours post-administration, baseline 22) was 3 and the “improvements in depression and suicidality, preliminary data” value [2] was “rapid, significant, and sustained improvements in depression and suicidality”. For the same compound, the “sedation or dissociation, preliminary data” value [2] was “no meaningful sedation or dissociation”, the antidepressant properties [3] was “exhibit antidepressant properties” and the “S-STS CMCM score (range 0-9), risk of suicide at this time” value (“S-STS CMCM score (range 0-9), risk” for short) ([4]; Subject 1, 24 hours post-administration, baseline 7) was 3. For the same compound, the “S-STS CMCM score (range 0-9), risk” value ([4]; Subject 1, Day 9) was 2, the “S-STS CMCM score (range 0-9), risk” value [4, 10] was 3 and the “S-STS CMCM score (range 0-9), risk” value ([4]; Subject 2, Day 9) was “zero”. For the same compound, the “S-STS CMCM score (range 0-9), risk” value ([4]; both subjects, Day 8) was 2, the “S-STS CMCM Risk of Suicide at Within the Next 7 Days score (range 1-10)” value (“S-STS CMCM Risk of Suicide” for short) ([5]; Subject 1, 24 hours post-administration, baseline 5) was 2 and the “S-STS CMCM Risk of Suicide” value [5, 10] was 1. For the same compound, the “S-STS CMCM Risk of Suicide” value ([5]; the scores, Day 4) was 1, the “S-STS CMCM Risk of Suicide” value ([5]; the scores, Day 8) was 0 and the MADRS total score ([6]; Subject 1, 24 hours post-administration, 90 mg IN plus SOC, baseline 35) was 8. The MADRS total score ([6]; Subject 2, 24 hours post-administration, 90 mg IN plus SOC, baseline 38) was 15, the MADRS total score ([6]; Subject 2, Day 8, after second dose on Day 4) was 16 and the “reduction of MADRS total score” value ([6]; both subjects, 24 hours post-administration) was over 50%. For the same compound, the “CADSS score (dissociation)” value ([7]; Subject 1, all time points, clinical threshold score ≥4) was “zero”, the “CADSS score (dissociation)” value ([7]; Subject 2, 40 minutes post-administration, clinical threshold score ≥4) was 2 and the “CADSS score (dissociation)” value ([7]; Subject 2, 1 hour post-administration) was “zero”. For the same compound, the “MADRS item 10 (suicidality) score (range 0-6)” value ([8]; Subject 1, 24 hours post-administration) was 0, the “MADRS item 10 (suicidality) score (range 0-6)” value ([8]; second subject (not given), 24 hours post-administration) was 0 and the “movement during the anesthetic recovery phase” value [9] was “increased movement”.
In the case of `NC1(c2ccccc2Cl)CCCCC1=O` (centres unmarked) [norketamine], the “movement during the anesthetic recovery phase” value [9] is given as “increased movement”.
For `NC1(c2ccccc2Cl)CCCC(O)C1=O` (centres unmarked) [6-hydroxynorketamine], the antidepressant properties [3] is given as “exhibit antidepressant properties”.
